# From patent US20050042283A1, “Histamine and CCK2/gastrin receptor blockade in the treatment of acid-peptic disease and cancer” (UNIVERSITY OF MASSACHUSETTS, priority 2003, published 2005)
# Experiments:
# Assay type in all cases: in vivo
# [1] = test system: TNF-alpha; test: Real-time RT-PCR of cytokine expression: TNF-alpha; conditions: 6 months, versus untreated mice
# Method: (§1) Real-time RT-PCR assay of growth factors and cytokine expression profiles Total RNAs were extracted from a sample of whole stomach from each animal with Trizol (Invitrogen, Calif.) and five micrograms of total RNA were used for first strand cDNA synthesis using Superscript II cDNA amplification System (Invitrogen, Calif.) following manufacturer's instructions. Real-time PCR was performed as above using RT-PCR primers for each gene as listed below. All primers were designed using Lasergene ver5.0 software (DNASTAR inc., Madison, Wis.). Results were calculated by minus delta delta threshold cycle (-ΔΔCt) method (Livak, K. J. et al., 2001). Briefly, the threshold cycle Ct1 of each sample reaction was deducted from the threshold cycle Ct2 of GAPDH reaction for normalization, and then deducted from the threshold cycle Ct3 of calibration control (45 cycles in this experiment), i.e., the final result was represented by the formula; Ct3-(Ct1-Ct2). […]
# [2] = test system: Reg I; test: Real-time RT-PCR of growth factor expression: Reg I; conditions: quantitative real-time PCR; versus non drug treated mice
# Method: as §1
# [3] = test system: H. felis-infected INS-GAS mice; test: Gastric mucosa histological evaluation and scoring; conditions: for Corpus histological score: Atrophy / Corpus histological score: Dysplasia / Corpus histological score: Hyperplasia / Corpus histological score: Inflammation: scale 0 to 4, mean ± SD
# Text: The insulin-gastrin (INS-GAS) transgenic mice (FVB/N background) have been described previously (Wang, T. C. et al., 2000; Wang T. C. et al., 1993) and were free of specific pathogens. Animals were housed in microisolator, solid-bottomed polycarbonate cages, fed a commercially prepared pelleted diet, and given water ad libitum. One hundred twenty four (124) male INS-GAS mice at 2 or 3 months of age were inoculated with Helicobacter felis (ATCC 49179) as previously described (Wang, T. C. et al., 2000). Infection status was confirmed at 14 weeks and 26 weeks post inoculation by enzyme-linked immunosorbent assay (ELISA) to measure immunoglobulin IgG antibody to H. felis, and by quantitative real-time PCR assays of gastric corpus tissue at necropsy as described below. All experiments were approved by the Institutional Animal Care and Use Committee of University of Massachusetts Medical School.
# Mice in group III were treated orally with the histamine H2 receptor antagonist loxtidine (in drinking water) at a dose of 0.5 g/L, while group IV mice received both drugs. For the 3 months drug study of inhibitory effects on maximal acid secretion, gastric atrophy, hyperplasia and dysplasia, 8 mice were prepared for each group. For the 6 months drug study of inhibitory effects on gastric carcinogenesis, 17 mice were prepared for each group.
# The proton pump inhibitor omeprazole was purchased from Sigma (St. Louis Mo.) and dissolved in dimethylsulfoxide (DMSO)/PEG300, a 1:1 mixture at the concentration of 40 mg/ml, and injected intraperitoneally daily at the dose of […] (=350 micromole/kg) for 3 months. Twenty four (24) mice were divided into four groups. Mice in group A were controls treated with vehicle only, whereas group B mice were treated with omeprazole alone. Group C and D mice were treated with combination of omeprazole and YF476 or loxtidine, respectively.
# At necropsy, linear strips extending from the squamocolumnar junction through the proximal duodenum were fixed in 10% neutral-buffered formalin, paraffin-embedded, cut at 5 microns, and stained with hematoxylin and eosin. Indices of injury in the gastric cardia/corpus and antrum were scored on an ordinal scale from 0 to 4 in increments of 0.5 by a single veterinary pathologist (A.B.R.) blinded to treatment groups. Paraffin-embedded sections were also stained with the Warthin-Starry silver staining method for detection of H.felis as previously described (Fox, J. G. et al., 2003).
substance,measurement,setting,value
"1-methyl-5-((3-(3-(1-piperidinylmethyl)phenoxy)propyl)amino)-1H-1,2,4-triazole-3-ethanol [Loxtidine]",TNF-alpha expression level,[1]; listed as Loxtidine alone,significantly lower level
same,TNF-alpha expression level,[1]; listed as loxtidine alone,significantly down-regulated
same,Reg I expression level,[2],markedly reduced
same,"Histological finding: gastric atrophy, hyperplasia, dysplasia","[3]; 3 months treatment, hematoxylin and eosin",partially blocked
same,"Histological finding: gastric atrophy, hyperplasia, dysplasia","[3]; 3 months treatment, hematoxylin and eosin, listed as loxtidine",partial inhibition of gastric atrophy and foveolar hyperplasia
same,"Histological finding: gastric atrophy, hyperplasia, dysplasia","[3]; 3 months treatment, hematoxylin and eosin, listed as loxtidine alone",slight inhibition of Helicobacter-mediated gastric atrophy
same,Corpus histological score: Atrophy,"[3]; 3 months treatment, n = 4",1.83 ± 0.29
same,Corpus histological score: Dysplasia,"[3]; 3 months treatment, n = 4",1.00 ± 0.50
same,Corpus histological score: Hyperplasia,"[3]; 3 months treatment, n = 4",1.33 ± 0.58
same,Corpus histological score: Inflammation,"[3]; 3 months treatment, n = 4",1.83 ± 0.29
same,Histological finding: gastric neoplasia / carcinogenesis,"[3]; 6 months treatment, hematoxylin and eosin",partial inhibition of progression to neoplasia
same,Corpus histological score: Atrophy,"[3]; 6 months treatment, n = 5",2.67 ± 0.61
same,Corpus histological score: Dysplasia,"[3]; 6 months treatment, n = 5",2.17 ± 1.29a
same,Corpus histological score: Hyperplasia,"[3]; 6 months treatment, n = 5",2.42 ± 1.07a
same,Corpus histological score: Inflammation,"[3]; 6 months treatment, n = 5",2.33 ± 1.17
